Consider 28 molecules from patent US12286428B2 (BRISTOL-MYERS SQUIBB COMPANY, priority 2019, dated 2025).

As usually defined, the IC50 is the point on the concentration scale where inhibition reaches its midpoint.

One experiment has as its target T1, IRAK4 (Homo sapiens, UniProt Q9NWZ3).
T1 sequence (Q9NWZ3 1-460): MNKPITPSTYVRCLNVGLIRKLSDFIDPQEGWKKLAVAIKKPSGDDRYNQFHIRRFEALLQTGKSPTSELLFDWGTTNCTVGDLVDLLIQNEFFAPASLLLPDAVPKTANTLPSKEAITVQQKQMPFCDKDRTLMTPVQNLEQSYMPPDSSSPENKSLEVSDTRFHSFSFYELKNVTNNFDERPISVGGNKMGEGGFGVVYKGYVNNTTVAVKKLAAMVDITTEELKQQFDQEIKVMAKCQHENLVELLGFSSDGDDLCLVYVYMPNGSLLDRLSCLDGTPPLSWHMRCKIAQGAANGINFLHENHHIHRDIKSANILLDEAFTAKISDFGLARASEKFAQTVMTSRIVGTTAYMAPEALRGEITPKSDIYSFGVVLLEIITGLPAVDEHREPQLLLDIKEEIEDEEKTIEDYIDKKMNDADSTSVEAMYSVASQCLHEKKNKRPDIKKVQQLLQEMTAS
Put plainly: IRAK4 Inhibition Assay. The experiment is classed as biochemical. Particulars: ATP 500 μM; FL-IPTSPITTTYFFFKKK peptide […]; IRAK4 0.6 nM; 60 min room temperature; Caliper LABCHIP 3000. The protocol: The assays were performed in U-bottom 384-well plates. […] The reaction was initiated by the combination of IRAK4 with substrates and test compounds. The reaction mixture was incubated at room temperature for 60 min. and terminated by adding 45 μL of 35 mM EDTA to each sample. The reaction mixture was analyzed on the Caliper LABCHIP® 3000 (Caliper, Hopkinton, MA) by electrophoretic separation of the fluorescent substrate and phosphorylated product. […] The final concentrations of reagents in the assays are ATP, 500 μM; FL-[…] peptide 1.5 μM; IRAK4, 0.6 nM; and DMSO, 1.6%.
Take `CC[C@@H]1[C@H](F)C(=O)N[C@@H]1COc1cccc2cc(C(N)=O)c3nccn3c12` [Example 5, 9-(((2S,3S,4S)-3-ethyl-4-fluoro-5-oxopyrrolidin-2-yl)methoxy)imidazo[1,2-a]quinoline-4-carboxamide]: the IC50 came out at 1.3 nM.
The same measure, in the same setting: next, `CC[C@H]1[C@@H](COc2cccc3cc(C(N)=O)c4ncnn4c23)NC(=O)C1(F)F` [Example 39, 9-(((2S,3S)-3-ethyl-4,4-difluoro-5-oxopyrrolidin-2-yl)methoxy)-[1,2,4]triazolo[1,5-a]quinoline-4-carboxamide]: 15.9 nM; `CC[C@@H]1CC(=O)N[C@@H]1COc1nccc2cc(C(N)=O)c3nccn3c12` [Example 16, 1-(((2S,3R)-3-ethyl-5-oxopyrrolidin-2-yl)methoxy)imidazo[1,2-a][1,7]naphthyridine-6-carboxamide]: 11 nM; `CC[C@H]1CC(=O)N[C@@H]1COc1nccc2cc(C(N)=O)c3nc(C(F)(F)F)cn3c12` [Example 31, 1-(((2S,3S)-3-ethyl-5-oxopyrrolidin-2-yl)methoxy)-8-(trifluoromethyl)imidazo[1,2-a][1,7]naphthyridine-6-carboxamide]: 1060 nM.
Same read-out and setting: the same measure for `CC[C@@H]1[C@H](F)C(=O)N[C@@H]1COC1=CC=CC2C(NC)=C(C(N)=O)c3nccn3C12` (stereo partly drawn) [Example 61, 9-(((2S,3S,4S)-3-ethyl-4-fluoro-5-oxopyrrolidin-2-yl)methoxy)-5-(methylamino)-5a,9a-dihydroimidazo[1,2-a]quinoline-4-carboxamide]: 94.4 nM.
The same measure, in the same setting: the same measure for `CC[C@@H]1[C@H](F)C(=O)N[C@@H]1COc1nccc2cc(C(N)=O)c3c(c12)CC(C)(C)O3` [Example 63, 1-(((2S,3S,4S)-3-ethyl-4-fluoro-5-oxopyrrolidin-2-yl)methoxy)-8,8-dimethyl-8,9-dihydrofuro[2,3-h]isoquinoline-6-carboxamide]: 2.2 nM; for `CC[C@@H]1CC(=O)N[C@@H]1COC1=CC=CC2C=C(C#N)c3nccn3C12` (stereo partly drawn) [Example 60, 9-(((2S,3R)-3-ethyl-5-oxopyrrolidin-2-yl)methoxy)-5a,9a-dihydroimidazo[1,2-a]quinoline-4-carbonitrile]: 350 nM.
Turning to `CC[C@@H]1[C@H](F)C(=O)N[C@@H]1COc1cccc2cc(C(N)=O)c3nncn3c12` [Example 43, 9-(((2S,3S,4S)-3-ethyl-4-fluoro-5-oxopyrrolidin-2-yl)methoxy)-[1,2,4]triazolo[4,3-a]quinoline-4-carboxamide], the IC50 amounted to 16.2 nM.
The same measure, in the same setting: next, “1-(((2S,3S,4S)-3-ethyl-4-fluoro-5-oxotetrahydrofuran-2-yl)methoxy)-8-methyl-8,9-dihydrofuro[2,3-h]isoquinoline-6-carboxamide [Example 52]”: 1.3 nM.
For `CC[C@@H]1OCC(=O)N[C@@H]1COc1nccc2cc(C(N)=O)c3nccn3c12` [Example 26, 1-(((2S,3R)-2-ethyl-5-oxomorpholin-3-yl)methoxy)imidazo[1,2-a][1,7]naphthyridine-6-carboxamide], the IC50 stood at 80.4 nM.
The same measure, in the same setting: next, `CC[C@@H]1[C@H](F)C(=O)N[C@@H]1COc1nccc2cc(C(N)=O)c3ncnn3c12` [Example 47, 9-(((2S,3S,4S)-3-ethyl-4-fluoro-5-oxopyrrolidin-2-yl)methoxy)-[1,2,4]triazolo[1,5-a][1,7]naphthyridine-4-carboxamide]: 78.1 nM; `CC[C@@H]1[C@H](F)C(=O)N(CO)[C@@H]1COc1nccc2cc(C(N)=O)c3nccn3c12` [Example 32]: 62 nM.
Same read-out and setting: next, `NC(=O)c1cc2ccnc(OC[C@@H]3CNC(=O)N3)c2n2ccnc12` [Example 27, (S)-1-((2-oxoimidazolidin-4-yl)methoxy)imidazo[1,2-a][1,7]naphthyridine-6-carboxamide]: 1820 nM; `CC[C@@H]1[C@H](F)C(=O)N[C@@H]1COc1cccc2cc(C(N)=O)c3nc(C(C)(C)O)cn3c12` [Example 13, 9-(((2S,3S,4S)-3-ethyl-4-fluoro-5-oxopyrrolidin-2-yl)methoxy)-2-(2-hydroxypropan-2-yl)imidazo[1,2-a]quinoline-4-carboxamide]: 1430 nM; `CC[C@@H]1CC(=O)N[C@@H]1COc1nc(C)cc2cc(C(N)=O)c3nccn3c12` [Example 28, 1-(((2S,3R)-3-ethyl-5-oxopyrrolidin-2-yl)methoxy)-3-methylimidazo[1,2-a][1,7]naphthyridine-6-carboxamide]: 225 nM.
Still for that read-out and setting: next, `CC[C@@H]1CC(=O)N[C@@H]1COC1=C(F)C=CC2C=C(C(N)=O)c3nccn3C12` (stereo partly drawn) [Example 59, 9-(((2S,3R)-3-ethyl-5-oxopyrrolidin-2-yl)methoxy)-8-fluoro-5a,9a-dihydroimidazo[1,2-a]quinoline-4-carboxamide]: 112 nM; `NC(=O)c1cc2cccc(OC[C@H]3COCC(=O)N3)c2n2ccnc12` [Example 7, (R)-9-((5-oxomorpholin-3-yl)methoxy)imidazo[1,2-a]quinoline-4-carboxamide]: 243 nM; `CC[C@H]1OC(=O)N[C@H]1COc1nccc2cc(C(N)=O)c3nccn3c12` [Example 23, 1-(((4S,5R)-5-ethyl-2-oxooxazolidin-4-yl)methoxy)imidazo[1,2-a][1,7]naphthyridine-6-carboxamide]: 262 nM.
With `CC[C@@H]1OC(=O)N[C@H]1COc1nccc2cc(C(N)=O)c3nccn3c12` [Example 24, 1-(((4S,5S)-5-ethyl-2-oxooxazolidin-4-yl)methoxy)imidazo[1,2-a][1,7]naphthyridine-6-carboxamide], the IC50 amounted to 176 nM.
Same read-out and setting: the same measure for `CC[C@H]1OCC(=O)N[C@H]1COc1nccc2cc(C(N)=O)c3nccn3c12` [Example 25, 1-(((2R,3S)-2-ethyl-5-oxomorpholin-3-yl)methoxy)imidazo[1,2-a][1,7]naphthyridine-6-carboxamide]: 1930 nM; for `CC[C@@H]1[C@H](F)C(=O)N[C@@H]1COc1cccc2cc(C(N)=O)c3nnnn3c12` [Example 45, 9-(((2S,3S,4S)-3-ethyl-4-fluoro-5-oxopyrrolidin-2-yl)methoxy)tetrazolo[1,5-a]quinoline-4-carboxamide]: 70 nM; for `CC[C@@H]1[C@H](F)C(=O)N[C@@H]1COc1cccc2cc(C(N)=O)c3nc(C)nn3c12` [Example 40, 9-(((2S,3S,4S)-3-ethyl-4-fluoro-5-oxopyrrolidin-2-yl)methoxy)-2-methyl-[1,2,4]triazolo[1,5-a]quinoline-4-carboxamide]: 39.1 nM.
Turning to `CC[C@@H]1CC(=O)N[C@@H]1COc1nc(C)cc2cc(C(N)=O)c3nc(C)cn3c12` [Example 29, 1-(((2S,3R)-3-ethyl-5-oxopyrrolidin-2-yl)methoxy)-3,8-dimethylimidazo[1,2-a][1,7]naphthyridine-6-carboxamide], the half-maximal inhibitory concentration (IC50) is 601 nM.
The same measure, in the same setting: the same measure for `CC[C@@H]1CC(=O)N[C@@H]1COc1cccc2cc(C(N)=O)c3nncn3c12` [Example 41, 9-(((2S,3R)-3-ethyl-5-oxopyrrolidin-2-yl)methoxy)-[1,2,4]triazolo[4,3-a]quinoline-4-carboxamide]: 42.2 nM; for `CC[C@H]1[C@@H](COc2cccc3cc(C(N)=O)c4nccn4c23)NC(=O)[C@@]1(C)F` [Example 6, 9-(((2S,3 S,4S)-3-ethyl-4-fluoro-4-methyl-5-oxopyrrolidin-2-yl)methoxy)imidazo[1,2-a]quinoline-4-carboxamide]: 518 nM.
On to `CC[C@@H]1[C@H](F)C(=O)N[C@@H]1COc1cccc2cc(C(N)=O)c3ncnn3c12` [Example 38, 9-(((2S,3S,4S)-3-ethyl-4-fluoro-5-oxopyrrolidin-2-yl)methoxy)-[1,2,4]triazolo[1,5-a]quinoline-4-carboxamide], for which the IC50 was 60.3 nM.
With `CC[C@H]1CC(=O)N[C@@H]1COc1cccc2cc(C(N)=O)c3nncn3c12` [Example 42, 9-(((2S,3S)-3-ethyl-5-oxopyrrolidin-2-yl)methoxy)-[1,2,4]triazolo[4,3-a]quinoline-4-carboxamide], the IC50 came out at 290 nM.

The same experiment, now with this note: ATP 500 μM; FL-[…] peptide 1.5 μM; IRAK4 0.6 nM; 60 min room temperature; Caliper LABCHIP 3000.
Take `CC[C@@H]1CC(=O)N[C@@H]1COc1nccc2cc(C(N)=O)c3nc(C(F)(F)F)cn3c12` [Example 30, 1-(((2S,3R)-3-ethyl-5-oxopyrrolidin-2-yl)methoxy)-8-(trifluoromethyl)imidazo[1,2-a][1,7]naphthyridine-6-carboxamide]: the IC50 was 1720 nM.

The test system of a further experiment is Human whole blood, IL-6 levels after TLR2 agonist lipoteichoic acid. Put plainly: IRAK4 Whole Blood Assay. The experiment is classed as cell-based. The conditions noted are these: compounds 60 minutes at 37° C., lipoteichoic acid 10 μg/mL for 5 hours. The protocol: IRAK4 Whole Blood Assay Human whole blood containing the anti-coagulant ACD-A was plated in 384-well plate (25 μL/well) and incubated with compounds for 60 minutes at 37° C. in a 5% CO2 incubator. The blood was stimulated with a TLR2 agonist, 10 μg/mL final concentration of lipoteichoic acid (Invivogen, San Diego, CA) in 25 μL RPMI (Gibco) for 5 hours in a 5% CO2 incubator. At the end of the incubation, plates were centrifuged at 2300 rpm for 5 minutes. Supernatants were harvested and analyzed for IL-6 levels by Flow Cytometry beads assay (BD Biosciences, San Jose, CA).
In the case of `CC[C@@H]1[C@H](F)C(=O)N[C@@H]1COc1cccc2cc(C(N)=O)c3nccn3c12` [Example 5, 9-(((2S,3S,4S)-3-ethyl-4-fluoro-5-oxopyrrolidin-2-yl)methoxy)imidazo[1,2-a]quinoline-4-carboxamide], the IC50 came out at 280 nM.
In turn, `CC[C@H]1[C@@H](COc2cccc3cc(C(N)=O)c4ncnn4c23)NC(=O)C1(F)F` [Example 39, 9-(((2S,3S)-3-ethyl-4,4-difluoro-5-oxopyrrolidin-2-yl)methoxy)-[1,2,4]triazolo[1,5-a]quinoline-4-carboxamide] yielded an IC50 of 78 nM.
Same read-out and setting: the same measure for `CC[C@@H]1CC(=O)N[C@@H]1COc1nccc2cc(C(N)=O)c3nccn3c12` [Example 16, 1-(((2S,3R)-3-ethyl-5-oxopyrrolidin-2-yl)methoxy)imidazo[1,2-a][1,7]naphthyridine-6-carboxamide]: 1520 nM.
